Laboratory results: US20230331734A1, “NOVEL SPIROPYRROLIDINE DERIVED ANTIVIRAL AGENTS” (ENANTA PHARMACEUTICALS, INC., priority 2022, published 2023)

How the values were obtained:
[1] = test system: 229E human coronavirus (hCoV); assay: microbe, parasite or virus in culture; type: cell-based; conditions: unidentified human coronavirus, MRC5, 144 h; MRC-5 cells, MOI 0.05, 6 days at 34° C., ATPlite, duplicate
SARS-CoV-2 3CL-protease = SARS-CoV-2 3CL-protease (Severe acute respiratory syndrome coronavirus 2 (2019-nCoV) (SARS-CoV-2), UniProt P0DTD1); assay: SARS-CoV-2 3C-like (3CL) protease fluorescence assay (FRET); type: biochemical; conditions: recombinant SARS-CoV-2 3CL-protease 10 nM, 30 min preincubation, substrate 40 μM, duplicate
norovirus = conditions: phase II randomized double-blind trial, patients; cited from earlier work

CC(C)[C@H](NC(=O)OCc1ccccc1)C(=O)CC(Cc1ccc(F)cc1)C(=O)N1C[C@]2(C[C@H]1C#N)C(=O)Nc1ccccc12 (some centres unmarked) [Example 1]
EC50 [1]: > 1 µM | IC50 (SARS-CoV-2 3CL-protease): 0.1 to 1 µM

CC(C)[C@H](NC(=O)C(F)(F)F)C(=O)CC(Cc1ccc(F)cc1)C(=O)N1C[C@]2(C[C@H]1C#N)C(=O)Nc1ccccc12 (some centres unmarked) [Example 2]
EC50 [1]: > 1 µM | IC50 (SARS-CoV-2 3CL-protease): 0.1 to 1 µM

CC(C)CC(CC(=O)[C@@H](NC(=O)OCc1ccccc1)C(C)C)C(=O)N1C[C@]2(C[C@H]1C#N)C(=O)Nc1ccccc12 (some centres unmarked) [Example 3]
EC50 [1]: > 1 µM | IC50 (SARS-CoV-2 3CL-protease): > 1 µM

Cc1cc(C(=O)N[C@H](C(=O)C[C@@H](Cc2ccc(F)cc2)C(=O)N2C[C@]3(C[C@H]2C#N)C(=O)Nc2ccccc23)C(C)C)no1 [Example 5]
IC50 (SARS-CoV-2 3CL-protease): < 0.1 µM

CCOC(=O)/C=C/[C@@H]1C[C@@]2(CN1C(=O)[C@@H](CC(=O)[C@@H](NC(=O)c1cc(C)on1)C(C)C)Cc1ccc(F)cc1)C(=O)Nc1ccccc12 [Example 6]
IC50 (SARS-CoV-2 3CL-protease): > 1 µM

CCOC(=O)/C=C/[C@@H]1C[C@@]2(CN1C(=O)[C@@H](CC(=O)[C@@H](NC(=O)OC(C)(C)C)C(C)C)Cc1ccc(F)cc1)C(=O)Nc1ccccc12 [Example 25]
IC50 (SARS-CoV-2 3CL-protease): > 1 µM

CC(C)[C@H](NC(=O)OC(C)(C)C)C(=O)C[C@@H](Cc1ccc(F)cc1)C(=O)N1C[C@]2(C[C@H]1C#N)C(=O)Nc1ccccc12 [Example 26]
IC50 (SARS-CoV-2 3CL-protease): < 0.1 µM

CC(=O)Oc1ccccc1C(=O)Nc1ncc([N+](=O)[O-])s1 [NTZ, nitazoxanide]
reduction of gastroenteritis symptoms (norovirus): 24 h
